The test system of data set [1] is AHR-regulated gene CYP1A1. Nature of the data set: In vitro assay 3: AHR-regulated CYP1A1 expression in human cell line (U937, qPCR). In general terms: Quantitative PCR measures a nucleic acid by following its amplification.
Data set [2] has as its target T1, AHR (Homo sapiens, UniProt P35869).
T1 sequence (P35869 11-848): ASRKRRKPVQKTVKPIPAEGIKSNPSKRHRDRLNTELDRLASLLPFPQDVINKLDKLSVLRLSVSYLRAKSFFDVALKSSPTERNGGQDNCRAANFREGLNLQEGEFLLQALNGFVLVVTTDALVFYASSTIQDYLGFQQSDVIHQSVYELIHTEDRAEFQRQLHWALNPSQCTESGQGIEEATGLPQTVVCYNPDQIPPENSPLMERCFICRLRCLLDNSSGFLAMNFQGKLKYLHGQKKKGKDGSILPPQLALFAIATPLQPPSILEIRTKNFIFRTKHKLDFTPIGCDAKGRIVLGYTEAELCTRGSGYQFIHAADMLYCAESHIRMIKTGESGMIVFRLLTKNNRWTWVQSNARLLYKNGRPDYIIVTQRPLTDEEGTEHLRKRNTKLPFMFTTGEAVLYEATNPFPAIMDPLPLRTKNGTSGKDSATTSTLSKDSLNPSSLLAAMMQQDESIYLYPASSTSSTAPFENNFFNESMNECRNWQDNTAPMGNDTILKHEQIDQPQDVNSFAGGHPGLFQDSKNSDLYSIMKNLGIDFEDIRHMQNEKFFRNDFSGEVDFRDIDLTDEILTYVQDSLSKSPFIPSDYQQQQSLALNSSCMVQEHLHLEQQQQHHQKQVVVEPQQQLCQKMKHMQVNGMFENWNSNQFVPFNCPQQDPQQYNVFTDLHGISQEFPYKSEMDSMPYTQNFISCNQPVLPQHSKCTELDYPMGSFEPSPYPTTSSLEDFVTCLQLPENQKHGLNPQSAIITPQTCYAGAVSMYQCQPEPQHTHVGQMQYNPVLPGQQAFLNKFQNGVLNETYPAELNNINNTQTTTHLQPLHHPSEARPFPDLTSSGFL
Nature of the data set: In vitro assay 1: antagonism in human cell line (transactivation assay, kynurenic acid prestimulated). Particulars: Assay 1: AHR-luc Hum Antagonism IC50 [M], 150 μM kynurenic acid, 20 hours, firefly luciferase.

The target in data set [3] is T1, AHR. Nature of the data set: In vitro assay 2: agonism in human cell line (transactivation assay).
Where [4] appears, read: Homo sapiens, U-937, 6 h, read-out: Assay 3: Hum CYP1A1 Antagonism IC50 [M], U937 cells, 200 μM KA, 6 hours, qPCR.
Where [5] appears, read: Assay 2: AHR-luc Hum Agonism IC50 [M], no kynurenic acid, 20 hours, firefly luciferase.
Setting [6] is: read-out: Assay 3: Hum CYP1A1 Antagonism IC50, U937 cells, 200 μM KA, 6 hours, qPCR.
[7] abbreviates: read-out: Assay 2: AHR-luc Hum Agonism IC50, no kynurenic acid, 20 hours, firefly luciferase.

Experimental findings from patent US11040035B2, “3-oxo-2,6-diphenyl-2,3-dihydropyridazine-4-carboxamides” (BAYER PHARMA AKTIENGESELLSCHAFT, priority 2016, dated 2021) are described below.

For orientation: IC50 means the concentration needed to halve the response being measured.

Each structure is given as a SMILES string. Where two headings read alike, the source gives them in different places. Where only a bound is given, the exact number is not on record here.

`C[C@@H](CO)CNC(=O)c1cc(-c2ccc(C(F)(F)F)cc2)nn(-c2cccc(F)c2)c1=O` (single isomer, unassigned) [Example 329]: the IC50 is 3.22e-08 M in data set [1] (setting [4]), 2.8e-08 M against AHR [2] and over 2e-05 M against AHR [3] (setting [5]).

For `COc1ccc(-c2cc(C(=O)NCC(O)C(F)(F)F)c(=O)n(-c3cccc(F)c3)n2)cc1` (single isomer, unassigned) [Example 127, 2-(3-Fluorophenyl)-6-(4-methoxyphenyl)-3-oxo-N-(3,3,3-trifluoro-2-hydroxypropyl)-2,3-dihydropyridazine-4-carboxamide], the IC50 was 6.08e-08 M in data set [1] (setting [6]), 4.05e-08 M at AHR [2] and over 2e-05 M on AHR [3] (setting [5]).

As for `COc1ccc(-c2cc(C(=O)N[C@@H]3CCCC[C@@H]3O)c(=O)n(-c3cccc(F)c3)n2)cc1` (single isomer, unassigned) [Example 107, 2-(3-Fluorophenyl)-N-(cis-2-hydroxycyclohexyl)-6-(4-methoxyphenyl)-3-oxo-2,3-dihydropyridazine-4-carboxamide], the half-maximal inhibitory concentration (IC50) in data set [1] (setting [4]) was 1.83e-08 M; at AHR [2], 1.76e-08 M; on AHR [3] (setting [5]), over 2e-05 M.

As to `O=C(NC1(CO)CC1)c1cc(-c2ccc(Cl)cc2)nn(-c2cccc(F)c2)c1=O` [Example 187, 6-(4-Chlorophenyl)-2-(3-fluorophenyl)-N-[1-(hydroxymethyl)cyclopropyl]-3-oxo-2,3-dihydropyridazine-4-carboxamide], the figures for the half-maximal inhibitory concentration (IC50) (in data set [1] (setting [4]); on AHR [2]; against AHR [3] (setting [5])) were 1.1e-07 M, 1.02e-07 M and over 2e-05 M, respectively.

For `O=C(N[C@@H]1CCCC[C@@H]1O)c1cc(-c2ccc(Cl)cc2)nn(-c2cccc(F)c2)c1=O` (single isomer, unassigned) [Example 104, 6-(4-Chlorophenyl)-2-(3-fluorophenyl)-N-(cis-2-hydroxycyclohexyl)-3-oxo-2,3-dihydropyridazine-4-carboxamide], the IC50 was 1.64e-08 M in data set [1] (setting [4]), 1.57e-08 M against AHR [2] and over 2e-05 M on AHR [3] (setting [5]).

As to `O=C(NC(CO)CCO)c1cc(-c2ccc(C(F)(F)F)cc2)nn(-c2cccc(F)c2)c1=O` (racemic) [Example 262, N-[(2RS)-1,4-Dihydroxybutan-2-yl]-2-(3-fluorophenyl)-3-oxo-6-[4-(trifluoromethyl)phenyl]-2,3-dihydropyridazine-4-carboxamide], the half-maximal inhibitory concentration (IC50) in data set [1] (setting [4]) is 9.15e-08 M; at AHR [2] it was 5.51e-08 M; on AHR [3] (setting [5]), over 2e-05 M.

On to `O=C(N[C@@H]1CCCC(F)(F)[C@H]1O)c1cc(-c2ccc(Cl)cc2)nn(-c2cccc(F)c2)c1=O` (single isomer, unassigned) [Example 275, 6-(4-Chlorophenyl)-N-[(trans)-3,3-difluoro-2-hydroxycyclohexyl]-2-(3-fluorophenyl)-3-oxo-2,3-dihydropyridazine-4-carboxamide], for which the figures for the IC50 (in data set [1] (setting [4]); on AHR [2]; against AHR [3] (setting [5])) were 3.39e-08 M, 1.81e-08 M and over 2e-05 M, respectively.

In the case of `O=C(NCC(O)C(F)F)c1cc(-c2ccc(C(F)(F)F)cc2)nn(-c2cccc(F)c2)c1=O` (single isomer, unassigned; (+)) [Example 328, (+)-N-(3,3-difluoro-2-hydroxypropyl)-2-(3-fluorophenyl)-3-oxo-6-[4-(trifluoromethyl)phenyl]-2,3-dihydropyridazine-4-carboxamide], the 50% inhibitory concentration (IC50) is 9.53e-08 M in data set [1] (setting [6]), 4.47e-08 M against AHR [2] and over 2e-05 M on AHR [3] (setting [7]).

For `O=C(NCC(O)C(F)F)c1cc(-c2ccc(Cl)cc2)nn(-c2cccc(F)c2)c1=O` (single isomer, unassigned; (-)) [Example 222, (−)-6-(4-Chlorophenyl)-N-(3,3-difluoro-2-hydroxypropyl)-2-(3-fluorophenyl)-3-oxo-2,3-dihydropyridazine-4-carboxamide], the IC50 is 9.14e-08 M in data set [1] (setting [4]), 4.87e-08 M against AHR [2] and over 2e-05 M against AHR [3] (setting [5]).

For `CC(NC(=O)c1cc(-c2ccc(Cl)cc2)nn(-c2cccc(F)c2)c1=O)C(C)(C)O` (stereo not drawn) [Example 281, 6-(4-Chlorophenyl)-2-(3-fluorophenyl)-N-(3-hydroxy-3-methylbutan-2-yl)-3-oxo-2,3-dihydropyridazine-4-carboxamide], the IC50 in data set [1] (setting [4]) was 7.59e-08 M; on AHR [2], 2.2e-08 M; on AHR [3] (setting [5]), over 2e-05 M.

For `CC(O)C(C)NC(=O)c1cc(-c2ccc(Cl)cc2)nn(-c2cccc(F)c2)c1=O` (stereo not drawn) [Example 131, 6-(4-Chlorophenyl)-2-(3-fluorophenyl)-N-(3-hydroxybutan-2-yl]-3-oxo-2,3-dihydropyridazine-4-carboxamide], the IC50 in data set [1] (setting [4]) was 8.26e-08 M; at AHR [2] it was 4.69e-08 M; on AHR [3] (setting [5]), over 2e-05 M.

`O=C(NC(CO)C1CCC1)c1cc(-c2ccc(Cl)cc2)nn(-c2cccc(F)c2)c1=O` (single isomer, unassigned; (-)) [Example 211, (−)-6-(4-Chlorophenyl)-N-(1-cyclobutyl-2-hydroxyethyl)-2-(3-fluorophenyl)-3-oxo-2,3-dihydropyridazine-4-carboxamide]: the IC50 in data set [1] (setting [4]) is 2.23e-08 M; on AHR [2] it was 1.66e-08 M; on AHR [3] (setting [7]), over 2e-05 M.

`CC(O)C(NC(=O)c1cc(-c2ccc(Cl)cc2)nn(-c2cccc(F)c2)c1=O)C(F)(F)F` (single isomer, unassigned) [Example 198, 6-(4-chlorophenyl)-2-(3-fluorophenyl)-3-oxo-N-(1,1,1-trifluoro-3-hydroxybutan-2-yl)-2,3-dihydropyridazine-4-carboxamide]: the IC50 in data set [1] (setting [4]) was 1.49e-08 M; against AHR [2], 1.34e-08 M; against AHR [3] (setting [5]) it was over 2e-05 M.

Regarding `O=C(NCC(O)C(F)F)c1cc(-c2ccc(C(F)(F)F)cc2)nn(-c2cccc(F)c2)c1=O` (single isomer, unassigned; (-)) [Example 327, (−)-N-(3,3-difluoro-2-hydroxypropyl)-2-(3-fluorophenyl)-3-oxo-6-[4-(trifluoromethyl)phenyl]-2,3-dihydropyridazine-4-carboxamide], the IC50 in data set [1] (setting [6]) was 1.38e-08 M; against AHR [2] it was 1.66e-08 M; on AHR [3] (setting [5]), over 2e-05 M.

For the molecule `O=C(N[C@@H]1CC[C@@H]1O)c1cc(-c2ccc(Cl)cc2)nn(-c2cccc(F)c2)c1=O` (relative stereo) [Example 357], the IC50 in data set [1] (setting [4]) was 2.7e-08 M; against AHR [2], 2.13e-08 M; on AHR [3] (setting [5]), over 2e-05 M.

Take `CC(C)[C@@H](CO)NC(=O)c1cc(-c2ccc(Cl)cc2)nn(-c2cc(F)cc(F)c2)c1=O` [Example 43, 6-(4-Chlorophenyl)-2-(3,5-difluorophenyl)-N-[(2S)-1-hydroxy-3-methylbutan-2-yl]-3-oxo-2,3-dihydropyridazine-4-carboxamide]: the IC50 in data set [1] (setting [4]) was 1.08e-08 M; against AHR [2], 4.89e-09 M; at AHR [3] (setting [5]), over 2e-05 M.

Regarding `CC(C)[C@@H](CO)NC(=O)c1cc(-c2ccc(Cl)cc2)nn(-c2cccc(F)c2)c1=O` [Example 20, 6-(4-Chlorophenyl)-2-(3-fluorophenyl)-N-[(2S)-1-hydroxy-3-methylbutan-2-yl]-3-oxo-2,3-dihydropyridazine-4-carboxamide], the IC50 in data set [1] (setting [4]) is 1.22e-08 M; against AHR [2] it was 1.18e-08 M; against AHR [3] (setting [5]), over 2e-05 M.

Turning to `O=C(NCCCO)c1cc(-c2ccc(C(F)(F)F)cc2)nn(-c2cccc(F)c2)c1=O` [Example 249, 2-(3-Fluorophenyl)-N-(3-hydroxypropyl)-3-oxo-6-[4-(trifluoromethyl)phenyl]-2,3-dihydropyridazine-4-carboxamide], the half-maximal inhibitory concentration (IC50) in data set [1] (setting [4]) is 1.07e-07 M; at AHR [2], 8.84e-08 M; against AHR [3] (setting [5]) it was over 2e-05 M.
